Square brackets hold non-standard residues; d marks the D form. Peptide text beside a SMILES is read from it. * marks the point of attachment. Sta = CC(C)C[C@H](N)[C@@H](O)CC(=O)O; NMe2Val = CC(C)[C@@H](C(=O)*)N(C)C; dNMeF = CN[C@H](Cc1ccccc1)C(=O)O; dHiv = CC(C)[C@@H](O)C(=O)O; Hiv = CC(C)[C@H](O)C(=O)O
Assays:
Chymase (Homo sapiens) = Chymase (Homo sapiens) (UniProt P23946); assay: Inhibition of chymase assessed as residual activity at 10 uM after 10 to 15 mins by fluorescence assay relative to control
Caspase-14 = Caspase-14 (Homo sapiens, UniProt P31944); assay: Inhibition of caspase 14 after 10 to 15 mins by fluorescence assay
Sequence of Caspase-14 (P31944 6-146 limits assumed): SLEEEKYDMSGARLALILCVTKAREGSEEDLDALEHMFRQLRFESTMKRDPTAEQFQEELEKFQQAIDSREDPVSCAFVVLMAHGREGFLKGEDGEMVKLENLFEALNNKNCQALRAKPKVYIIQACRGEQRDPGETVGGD
Sequence of Caspase-14 (P31944 153-242 limits assumed): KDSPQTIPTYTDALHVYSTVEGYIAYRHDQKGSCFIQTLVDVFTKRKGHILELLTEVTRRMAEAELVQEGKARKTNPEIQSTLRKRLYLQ

Stromelysin-1 = Stromelysin-1 (Homo sapiens, UniProt P08254); assay: Inhibition of MMP3 after 10 to 15 mins by fluorescence assay
Caspase-6 = Caspase-6 (Homo sapiens, UniProt P55212); assay: Inhibition of caspase 6 after 10 to 15 mins by fluorescence assay
Sequence of Caspase-6 (P55212 24-179 limits assumed): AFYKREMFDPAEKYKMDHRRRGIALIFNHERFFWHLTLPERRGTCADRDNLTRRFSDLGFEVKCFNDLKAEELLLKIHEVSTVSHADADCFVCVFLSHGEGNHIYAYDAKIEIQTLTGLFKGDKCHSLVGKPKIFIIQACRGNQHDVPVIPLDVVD
Sequence of Caspase-6 (P55212 194-293 limits assumed): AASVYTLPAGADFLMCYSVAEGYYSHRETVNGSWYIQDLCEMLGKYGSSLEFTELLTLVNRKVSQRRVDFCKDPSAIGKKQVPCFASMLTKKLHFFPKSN

Stromelysin-2 = Stromelysin-2 (Homo sapiens, UniProt P09238); assay: Inhibition of MMP10 assessed as residual activity at 10 uM after 10 to 15 mins by fluorescence assay relative to control
Sequence of Stromelysin-2 (P09238 99-476 limits assumed): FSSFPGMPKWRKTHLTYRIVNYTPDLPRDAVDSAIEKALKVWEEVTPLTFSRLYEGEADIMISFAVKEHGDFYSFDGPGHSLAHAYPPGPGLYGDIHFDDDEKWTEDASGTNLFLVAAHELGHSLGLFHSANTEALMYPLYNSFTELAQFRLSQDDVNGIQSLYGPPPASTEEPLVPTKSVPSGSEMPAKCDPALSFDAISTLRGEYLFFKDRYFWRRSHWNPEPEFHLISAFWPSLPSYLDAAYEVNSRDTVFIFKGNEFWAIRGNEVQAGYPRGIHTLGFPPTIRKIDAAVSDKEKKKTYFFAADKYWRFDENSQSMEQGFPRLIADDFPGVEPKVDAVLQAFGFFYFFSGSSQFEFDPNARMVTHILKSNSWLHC

Caspase-2 (Homo sapiens) = Caspase-2 (Homo sapiens) (UniProt P42575); assay: Inhibition of caspase 2 assessed as residual activity at 10 uM after 10 to 15 mins by fluorescence assay relative to control
[1] = target: Tryptase beta-1 (Homo sapiens) (UniProt Q15661); assay: Inhibition of tryptase beta2 assessed as residual activity at 10 uM after 10 to 15 mins by fluorescence assay relative to control
Stromelysin-3 = Stromelysin-3 (Homo sapiens, UniProt P24347); assay: Inhibition of MMP11 catalytic domain after 10 to 15 mins by fluorescence assay
[2] = target: Cathepsin Z (Homo sapiens) (UniProt Q9UBR2); assay: Inhibition of cathepsin Z assessed as residual activity at 10 uM after 10 to 15 mins by fluorescence assay relative to control
Sequence of Cathepsin Z (Homo sapiens) (Q9UBR2 whole entry): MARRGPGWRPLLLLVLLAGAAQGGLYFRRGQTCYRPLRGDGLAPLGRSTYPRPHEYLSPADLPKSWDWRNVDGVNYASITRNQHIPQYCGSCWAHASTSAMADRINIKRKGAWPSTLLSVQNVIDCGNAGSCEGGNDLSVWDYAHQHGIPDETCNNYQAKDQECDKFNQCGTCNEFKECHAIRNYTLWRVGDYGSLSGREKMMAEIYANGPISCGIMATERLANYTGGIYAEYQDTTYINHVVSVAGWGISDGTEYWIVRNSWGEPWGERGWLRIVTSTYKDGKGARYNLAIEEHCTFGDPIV

[3] = target: Serine protease 1 (Bos taurus) (UniProt P00760); assay: Inhibition of bovine pancreatic trypsin assessed as residual activity at 10 uM after 10 to 15 mins by fluorescence assay relative to control
[4] = target: Macrophage metalloelastase (Homo sapiens, UniProt P39900); assay: Inhibition of MMP12 catalytic domain after 10 to 15 mins by fluorescence assay
[5] = target: Chymotrypsin-like elastase family member 1 (Sus scrofa) (UniProt P00772); assay: Inhibition of porcine pancreatic elastase assessed as residual activity at 10 uM after 10 to 15 mins by fluorescence assay relative to control
[6] = target: Caspase-14 (Homo sapiens) (UniProt P31944); assay: Inhibition of caspase 14 assessed as residual activity at 10 uM after 10 to 15 mins by fluorescence assay relative to control
[7] = target: Angiotensin-converting enzyme (Homo sapiens) (UniProt P12821); assay: Inhibition of ACE1 assessed as residual activity at 10 uM after 10 to 15 mins by fluorescence assay relative to control
Caspase-9 (Homo sapiens) = Caspase-9 (Homo sapiens) (UniProt P55211); assay: Inhibition of caspase 9 assessed as residual activity at 10 uM after 10 to 15 mins by fluorescence assay relative to control
Sequence of Caspase-9 (Homo sapiens) (P55211 1-315 limits assumed): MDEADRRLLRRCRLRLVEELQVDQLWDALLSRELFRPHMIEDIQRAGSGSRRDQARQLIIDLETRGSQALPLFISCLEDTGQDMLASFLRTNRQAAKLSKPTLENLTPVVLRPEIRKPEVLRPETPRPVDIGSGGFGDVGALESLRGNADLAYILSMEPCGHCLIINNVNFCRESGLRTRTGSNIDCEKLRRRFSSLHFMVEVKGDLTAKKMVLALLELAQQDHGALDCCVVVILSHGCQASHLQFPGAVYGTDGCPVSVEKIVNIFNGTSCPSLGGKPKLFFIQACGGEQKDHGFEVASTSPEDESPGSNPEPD
Sequence of Caspase-9 (Homo sapiens) (P55211 331-416 limits assumed): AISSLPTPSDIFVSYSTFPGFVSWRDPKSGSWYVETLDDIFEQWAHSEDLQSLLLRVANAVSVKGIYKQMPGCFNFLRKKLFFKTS

Collagenase 3 = Collagenase 3 (Homo sapiens, UniProt P45452); assay: Inhibition of MMP13 catalytic domain after 10 to 15 mins by fluorescence assay
Neutrophil collagenase = Neutrophil collagenase (Homo sapiens, UniProt P22894); assay: Inhibition of MMP8 assessed as residual activity at 10 uM after 10 to 15 mins by fluorescence assay relative to control
[8] = target: Plasma kallikrein (Homo sapiens) (UniProt P03952); assay: Inhibition of plasma kallikrein assessed as residual activity at 10 uM after 10 to 15 mins by fluorescence assay relative to control; format: cell-free
[9] = target: Matrilysin (Homo sapiens) (UniProt P09237); assay: Inhibition of MMP7 assessed as residual activity at 10 uM after 10 to 15 mins by fluorescence assay relative to control
[10] = target: Dipeptidyl peptidase 4 (Homo sapiens) (UniProt P27487); assay: Inhibition of DPP4 assessed as residual activity at 10 uM after 10 to 15 mins by fluorescence assay relative to control
Sequence of Dipeptidyl peptidase 4 (Homo sapiens) (P27487 whole entry, looked up): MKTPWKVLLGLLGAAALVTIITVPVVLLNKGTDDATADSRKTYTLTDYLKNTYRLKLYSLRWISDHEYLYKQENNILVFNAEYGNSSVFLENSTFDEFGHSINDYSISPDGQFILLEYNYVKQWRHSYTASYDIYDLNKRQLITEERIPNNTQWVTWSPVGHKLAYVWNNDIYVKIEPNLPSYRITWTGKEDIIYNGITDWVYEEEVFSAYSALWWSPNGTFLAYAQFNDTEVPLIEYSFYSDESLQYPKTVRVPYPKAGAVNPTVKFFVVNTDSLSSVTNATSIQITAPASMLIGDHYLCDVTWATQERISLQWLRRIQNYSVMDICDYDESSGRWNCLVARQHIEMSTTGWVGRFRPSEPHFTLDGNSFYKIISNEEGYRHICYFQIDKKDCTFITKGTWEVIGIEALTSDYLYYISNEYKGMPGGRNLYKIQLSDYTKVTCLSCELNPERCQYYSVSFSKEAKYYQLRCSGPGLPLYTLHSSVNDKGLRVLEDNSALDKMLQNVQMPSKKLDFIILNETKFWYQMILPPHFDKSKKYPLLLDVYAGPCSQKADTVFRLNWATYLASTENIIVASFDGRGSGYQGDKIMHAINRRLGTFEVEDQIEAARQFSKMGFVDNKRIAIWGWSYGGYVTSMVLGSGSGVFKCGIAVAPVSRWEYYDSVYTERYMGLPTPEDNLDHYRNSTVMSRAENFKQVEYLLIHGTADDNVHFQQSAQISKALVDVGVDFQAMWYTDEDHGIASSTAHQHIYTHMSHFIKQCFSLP

[11] = target: Coagulation factor X (Homo sapiens) (UniProt P00742); assay: Inhibition of factor 10a assessed as residual activity at 10 uM after 10 to 15 mins by fluorescence assay relative to control
Caspase-10 = Caspase-10 (Homo sapiens, UniProt Q92851); assay: Inhibition of caspase 10 after 10 to 15 mins by fluorescence assay
[12] = target: Disintegrin and metalloproteinase domain-containing protein 17 (Homo sapiens, UniProt P78536); conditions: 5.08 to 100000 nM
[13] = target: 72 kDa type IV collagenase (Homo sapiens, UniProt P08253); assay: Inhibition of MMP2 after 10 to 15 mins by fluorescence assay
Caspase-4 = Caspase-4 (Mus musculus, UniProt P70343); assay: Inhibition of mouse caspase 11 after 10 to 15 mins by fluorescence assay
[14] = target: Pro-cathepsin H (Homo sapiens) (UniProt P09668); assay: Inhibition of cathepsin H assessed as residual activity at 10 uM after 10 to 15 mins by fluorescence assay relative to control
Caspase-5 (Homo sapiens) = Caspase-5 (Homo sapiens) (UniProt P51878); assay: Inhibition of caspase 5 assessed as residual activity at 10 uM after 10 to 15 mins by fluorescence assay relative to control
Sequence of Caspase-5 (Homo sapiens) (P51878 137-327 limits assumed): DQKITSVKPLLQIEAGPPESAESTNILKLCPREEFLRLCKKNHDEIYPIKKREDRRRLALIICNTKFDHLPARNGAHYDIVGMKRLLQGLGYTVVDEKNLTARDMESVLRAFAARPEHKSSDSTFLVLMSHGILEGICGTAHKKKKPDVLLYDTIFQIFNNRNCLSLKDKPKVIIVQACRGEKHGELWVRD
Sequence of Caspase-5 (Homo sapiens) (P51878 347-434 limits assumed): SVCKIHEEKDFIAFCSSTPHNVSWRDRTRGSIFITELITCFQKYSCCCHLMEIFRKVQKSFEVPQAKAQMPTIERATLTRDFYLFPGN

[15] = target: Disintegrin and metalloproteinase domain-containing protein 10 (Homo sapiens) (UniProt O14672); assay: Inhibition of ADAM10 assessed as residual activity at 10 uM after 10 to 15 mins by fluorescence assay relative to control
Sequence of Disintegrin and metalloproteinase domain-containing protein 10 (Homo sapiens) (O14672 whole entry, the tested form may be a part): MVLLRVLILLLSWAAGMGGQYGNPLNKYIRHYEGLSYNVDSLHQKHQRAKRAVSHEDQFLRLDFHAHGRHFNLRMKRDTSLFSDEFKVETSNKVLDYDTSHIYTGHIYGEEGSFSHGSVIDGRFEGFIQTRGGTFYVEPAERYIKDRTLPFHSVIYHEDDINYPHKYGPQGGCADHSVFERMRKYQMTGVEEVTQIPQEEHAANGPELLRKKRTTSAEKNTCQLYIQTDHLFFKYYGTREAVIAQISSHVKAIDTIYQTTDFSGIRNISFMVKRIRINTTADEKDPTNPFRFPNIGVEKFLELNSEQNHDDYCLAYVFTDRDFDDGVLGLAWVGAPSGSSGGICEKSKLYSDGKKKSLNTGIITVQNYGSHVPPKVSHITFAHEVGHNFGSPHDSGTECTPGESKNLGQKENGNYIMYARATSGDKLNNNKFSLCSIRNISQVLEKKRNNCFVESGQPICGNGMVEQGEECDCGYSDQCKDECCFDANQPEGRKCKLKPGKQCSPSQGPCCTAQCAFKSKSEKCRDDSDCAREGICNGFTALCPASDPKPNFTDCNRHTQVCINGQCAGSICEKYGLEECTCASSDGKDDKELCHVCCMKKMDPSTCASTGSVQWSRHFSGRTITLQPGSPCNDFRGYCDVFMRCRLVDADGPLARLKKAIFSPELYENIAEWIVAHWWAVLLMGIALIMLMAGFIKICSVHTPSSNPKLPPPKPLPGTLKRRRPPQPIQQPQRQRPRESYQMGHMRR

[16] = target: Matrix metalloproteinase-9 (Homo sapiens, UniProt P14780); assay: Inhibition of MMP9 assessed as residual activity at 10 uM after 10 to 15 mins by fluorescence assay relative to control
Sequence of Matrix metalloproteinase-9 (P14780 whole entry): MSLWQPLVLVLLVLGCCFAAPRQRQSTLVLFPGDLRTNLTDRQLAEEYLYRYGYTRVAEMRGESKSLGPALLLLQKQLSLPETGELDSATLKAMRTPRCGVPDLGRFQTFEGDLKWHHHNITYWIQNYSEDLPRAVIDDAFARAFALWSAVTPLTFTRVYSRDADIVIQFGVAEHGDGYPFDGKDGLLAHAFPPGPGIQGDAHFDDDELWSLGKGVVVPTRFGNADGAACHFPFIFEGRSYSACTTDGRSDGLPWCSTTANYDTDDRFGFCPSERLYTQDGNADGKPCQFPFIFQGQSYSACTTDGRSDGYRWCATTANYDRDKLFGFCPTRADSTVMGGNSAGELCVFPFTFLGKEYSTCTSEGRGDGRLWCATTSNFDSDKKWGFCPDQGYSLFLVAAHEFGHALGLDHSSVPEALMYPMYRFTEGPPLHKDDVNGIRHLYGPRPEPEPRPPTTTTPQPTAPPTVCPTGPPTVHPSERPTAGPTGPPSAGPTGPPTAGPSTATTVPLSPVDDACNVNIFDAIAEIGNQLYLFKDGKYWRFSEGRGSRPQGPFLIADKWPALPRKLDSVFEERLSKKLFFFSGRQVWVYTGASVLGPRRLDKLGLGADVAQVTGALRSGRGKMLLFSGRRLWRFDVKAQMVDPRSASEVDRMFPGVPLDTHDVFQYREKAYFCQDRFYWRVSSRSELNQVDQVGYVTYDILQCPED

[17] = target: Beta-secretase 1 (Homo sapiens) (UniProt P56817); assay: Inhibition of BACE1 assessed as residual activity at 10 uM after 10 to 15 mins by fluorescence assay relative to control
Sequence of Beta-secretase 1 (Homo sapiens) (P56817 whole entry): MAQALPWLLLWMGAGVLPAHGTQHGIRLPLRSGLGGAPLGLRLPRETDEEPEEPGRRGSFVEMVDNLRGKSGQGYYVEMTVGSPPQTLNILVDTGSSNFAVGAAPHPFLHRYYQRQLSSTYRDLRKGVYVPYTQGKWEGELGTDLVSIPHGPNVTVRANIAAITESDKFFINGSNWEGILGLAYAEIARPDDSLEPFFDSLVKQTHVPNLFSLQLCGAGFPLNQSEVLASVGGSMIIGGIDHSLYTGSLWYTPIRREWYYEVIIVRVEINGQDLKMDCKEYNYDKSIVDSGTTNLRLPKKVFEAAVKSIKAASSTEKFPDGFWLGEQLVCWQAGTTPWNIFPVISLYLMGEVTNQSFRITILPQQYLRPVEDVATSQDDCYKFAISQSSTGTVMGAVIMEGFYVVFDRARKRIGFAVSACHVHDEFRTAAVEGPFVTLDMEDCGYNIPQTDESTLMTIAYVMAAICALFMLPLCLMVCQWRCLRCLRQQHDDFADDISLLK

[18] = target: Tryptase gamma (Homo sapiens) (UniProt Q9NRR2); assay: Inhibition of human lung tryptase gamma1 assessed as residual activity at 10 uM after 10 to 15 mins by fluorescence assay relative to control
Sequence of Tryptase gamma (Homo sapiens) (Q9NRR2 38-321 limits assumed, other chains not shown): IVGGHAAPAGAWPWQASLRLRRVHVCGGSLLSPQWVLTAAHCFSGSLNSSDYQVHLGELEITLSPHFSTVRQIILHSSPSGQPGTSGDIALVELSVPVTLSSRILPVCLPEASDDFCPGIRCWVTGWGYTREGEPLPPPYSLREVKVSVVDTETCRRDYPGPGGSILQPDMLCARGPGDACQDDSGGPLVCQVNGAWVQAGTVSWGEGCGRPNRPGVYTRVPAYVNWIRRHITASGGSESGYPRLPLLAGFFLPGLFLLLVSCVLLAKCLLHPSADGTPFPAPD

[19] = target: Kallikrein-8 (Homo sapiens) (UniProt O60259); assay: Inhibition of kallikrein 8 assessed as residual activity at 10 uM after 10 to 15 mins by fluorescence assay relative to control

## COC(=O)[C@@H]1CCCN1C(=O)[C@@H](Cc1ccccc1)N(C)C(=O)[C@H](C)NC(=O)[C@@H](NC(=O)C[C@H](O)[C@H](CC(C)C)NC(=O)[C@H](CC(N)=O)NC(=O)[C@H](CC(C)C)NC(=O)[C@H](OC(=O)[C@@H](OC(=O)[C@H](C(C)C)N(C)C)C(C)C)C(C)C)[C@@H](C)O [GRASSYSTATIN A] (NMe2Val-[Hiv][dHiv]LN[Sta]TA[dNMeF]P-OMe)
Chymase (Homo sapiens)
  Activity: 90%
Caspase-14
  IC50: 5 µM
Stromelysin-1
  IC50: 5 µM
Caspase-6
  IC50: 5 µM
Stromelysin-2
  Activity: 76%
Caspase-2 (Homo sapiens)
  Activity: 69%
[1]
  Activity: 74%
Stromelysin-3
  IC50: 5 µM
[2]
  Activity: 94%
[3]
  Activity: 77%
[4]
  IC50: 5 µM
[5]
  Activity: 66%
[6]
  Activity: 96%
[7]
  Activity: 84%
Caspase-9 (Homo sapiens)
  Activity: 78%
Collagenase 3
  IC50: 5 µM
Neutrophil collagenase
  Activity: 70%
[8]
  Activity: 78%
[9]
  Activity: 90%
[10]
  Activity: 71%
[11]
  Activity: 84%
Caspase-10
  IC50: 5 µM
[12]
  inhibition: tde
[13]
  IC50: 5 µM
Caspase-4
  IC50: 5 µM
[14]
  Activity: 80%
Caspase-5 (Homo sapiens)
  Activity: 58%
[15]
  Activity: 0%
[16]
  Activity: 81%
[17]
  Activity: 100%
[18]
  Activity: 80%
[19]
  Activity: 101%
